≈ marks a conversion by molar mass, not a printed value.
What was measured:
Type in all cases: functional
[1] = tested on: Mycolicibacterium smegmatis; test: Antitubercular activity against Mycobacterium smegmatis by checkerboard assay
[2] = tested on: Mycolicibacterium smegmatis; test: Antitubercular activity against Mycobacterium smegmatis by checkerboard assay in presence of spectinomycin
[3] = tested on: Mycolicibacterium smegmatis; test: Antitubercular activity against Mycobacterium smegmatis by checkerboard assay in presence of rifampicin
[4] = tested on: Mycolicibacterium smegmatis; test: Antitubercular activity against Mycobacterium smegmatis by checkerboard assay in presence of 25-desacetylrifampicin
[5] = tested on: Mycolicibacterium smegmatis; test: Antitubercular activity against Mycobacterium smegmatis by checkerboard assay in presence of kanamycin
[6] = tested on: Mycolicibacterium smegmatis; test: Ratio of MIC99 for Mycobacterium smegmatis to ratio of MIC99 for Mycobacterium smegmatis in presence of 25-desacetylrifampicin
[7] = tested on: Mycolicibacterium smegmatis; test: Ratio of MIC99 for Mycobacterium smegmatis to ratio of MIC99 for Mycobacterium smegmatis in presence of kanamycin
[8] = tested on: Mycobacterium tuberculosis; test: Antitubercular activity against drug-sensitive Mycobacterium tuberculosis
[9] = tested on: Mycolicibacterium smegmatis; test: Antitubercular activity against Mycobacterium smegmatis by checkerboard assay in presence of chlorpromazine; details: for MIC99: Mycolicibacterium smegmatis
[10] = tested on: Mycolicibacterium smegmatis; test: Ratio of MIC99 for Mycobacterium smegmatis to ratio of MIC99 for Mycobacterium smegmatis in presence of chlorpromazine
[11] = tested on: Mycolicibacterium smegmatis; test: Antitubercular activity against Mycobacterium smegmatis by checkerboard assay in presence of 7-hydroxy chlorpromazine; details: for MIC99: Mycolicibacterium smegmatis
[12] = tested on: Mycolicibacterium smegmatis; test: Ratio of MIC99 for Mycobacterium smegmatis to ratio of MIC99 for Mycobacterium smegmatis in presence of 7-hydroxy chlorpromazine
[13] = tested on: Mycolicibacterium smegmatis; test: Antitubercular activity against Mycobacterium smegmatis by checkerboard assay in presence of chlorpromazine-N-oxide; details: for MIC99: Mycolicibacterium smegmatis
[14] = tested on: Mycolicibacterium smegmatis; test: Antitubercular activity against Mycobacterium smegmatis by checkerboard assay in presence of nor-chlorpromazine; details: for MIC99: Mycolicibacterium smegmatis
[15] = tested on: Mycolicibacterium smegmatis; test: Ratio of MIC99 for Mycobacterium smegmatis to ratio of MIC99 for Mycobacterium smegmatis in presence of chlorpromazine-N-oxide
[16] = tested on: Mycolicibacterium smegmatis; test: Ratio of MIC99 for Mycobacterium smegmatis to ratio of MIC99 for Mycobacterium smegmatis in presence of nor-chlorpromazine
[17] = tested on: Mycolicibacterium smegmatis; test: Antitubercular activity against Mycobacterium smegmatis assessed as reduction in MIC99 by checkerboard assay in presence of chlorpromazine sulfoxide relative to control
[18] = tested on: Mycolicibacterium smegmatis; test: Antitubercular activity against Mycobacterium smegmatis assessed as reduction in MIC99 by checkerboard assay in presence of chlorpromazine-N-S-dioxide relative to control
[19] = tested on: Mycolicibacterium smegmatis; test: Antitubercular activity against Mycobacterium smegmatis by checkerboard assay in presence of chlorpromazine-N-S-dioxide
[20] = tested on: Mycolicibacterium smegmatis; test: Antitubercular activity against Mycobacterium smegmatis by checkerboard assay in presence of chlorpromazine sulfoxide
[21] = tested on: Mycolicibacterium smegmatis; test: Antitubercular activity against Mycobacterium smegmatis assessed as reduction in MIC99 by checkerboard assay in presence of nor-chlorpromazine sulfoxide relative to control
[22] = tested on: Mycolicibacterium smegmatis; test: Antitubercular activity against Mycobacterium smegmatis by checkerboard assay in presence of nor-chlorpromazine sulfoxide

## CNCCCN1c2ccccc2[S+]([O-])c2ccc(Cl)cc21 (configuration not stated)
[1]
  MIC99: > 2080 µM
[2]
  MIC99: 64.9 µM

## C[N+](C)([O-])CCCN1c2ccccc2Sc2ccc(Cl)cc21
[1]
  MIC99: 995 µM
[3]
  MIC99: 498 µM
[4]
  MIC99: 498 µM
[5]
  MIC99: 498 µM
[2]
  MIC99: 124 µM
[6]
  Ratio: 0.5
[7]
  Ratio: 0.5

## C[N+](C)([O-])CCCN1c2ccccc2[S+]([O-])c2ccc(Cl)cc21 (configuration not stated)
[1]
  MIC99: > 1900 µM
[5]
  MIC99: 475 µM
[2]
  MIC99: 1900 µM

## CN[C@@H]1[C@H](O)[C@H](NC)[C@H]2O[C@]3(O)[C@H](O[C@@H]2[C@H]1O)O[C@H](C)C[C@H]3NC(=O)Cc1ccccn1
[8]
  MIC: 0.8 µg/mL (≈ 1.77 µM)

## CN[C@@H]1[C@H](O)[C@H](NC)[C@H]2O[C@]3(O)[C@H](O[C@@H]2[C@H]1O)O[C@H](C)C[C@H]3NC(=O)Cc1ccccc1
[8]
  MIC: 0.8 µg/mL (≈ 1.77 µM)

## CN[C@@H]1[C@H](O)[C@H](NC)[C@H]2O[C@]3(O)[C@H](O[C@@H]2[C@H]1O)O[C@H](C)C[C@H]3NC(=O)Cc1ccc(F)cn1
[8]
  MIC: 0.8 µg/mL (≈ 1.7 µM)

## CN[C@@H]1[C@H](O)[C@H](NC)[C@H]2O[C@]3(O)[C@H](O[C@@H]2[C@H]1O)O[C@H](C)C[C@H]3NC(=O)Cc1ccc(Cl)cn1
[8]
  MIC: 0.8 µg/mL (≈ 1.64 µM)

## CN[C@@H]1[C@H](O)[C@H](NC)[C@H]2O[C@]3(O)[C@H](O[C@@H]2[C@H]1O)O[C@H](C)C[C@H]3NC(=O)CNC(C)(C)C
[8]
  MIC: 0.8 µg/mL (≈ 1.79 µM)

## CN[C@@H]1[C@H](O)[C@H](NC)[C@H]2O[C@]3(O)[C@H](O[C@@H]2[C@H]1O)O[C@H](C)C[C@H]3NC(=O)Cc1cscn1
[8]
  MIC: 0.8 µg/mL (≈ 1.74 µM)

## CN[C@@H]1[C@H](O)[C@H](NC)[C@H]2O[C@]3(O)[C@H](O[C@@H]2[C@H]1O)O[C@H](C)C[C@H]3NC(=O)Cc1cc(Cl)ccn1
[8]
  MIC: 0.8 µg/mL (≈ 1.64 µM)

## CN(C)CCCN1c2ccc(O)cc2Sc2ccc(Cl)cc21 [7-HYDROXYCHLORPROMAZINE]
[1]
  MIC99: 62.2 µM
[3]
  MIC99: 31.1 µM
[4]
  MIC99: 62.2 µM
[5]
  MIC99: 31.1 µM
[2]
  MIC99: 15.6 µM
[9]
  MIC99: 62.2 µM
[10]
  Ratio: 0.5
[6]
  Ratio: 0.5

## CN(C)CCCN1c2ccccc2[S+]([O-])c2ccc(Cl)cc21 (configuration not stated) [CHLOROPROMAZINE SULFOXIDE]
[1]
  MIC99: > 1990 µM
[5]
  MIC99: 1990 µM
[2]
  MIC99: 1990 µM

## CN(C)CCCN1c2ccccc2Sc2ccc(Cl)cc21 [CHLORPROMAZINE]
[1]
  MIC99: 117 µM
[3]
  MIC99: 58.6 µM
[4]
  MIC99: 29.3 µM
[5]
  MIC99: 58.6 µM
[2]
  MIC99: 29.3 µM
[11]
  MIC99: 29.3 µM
[7]
  Ratio: 0.5
[12]
  Ratio: 0.25

## CO[C@H]1/C=C/O[C@@]2(C)Oc3c(C)c(O)c4c(O)c(c(/C=N/N5CCN(C)CC5)c(O)c4c3C2=O)NC(=O)/C(C)=C\C=C\[C@H](C)[C@H](O)[C@@H](C)[C@@H](O)[C@@H](C)[C@H](O)[C@@H]1C [DESACETYLRIFAMPIN]
[1]
  MIC99: 5.33 µM
[9]
  fractional inhibitory concentration index (FICI): 0.5
  MIC99: 1.33 µM
[11]
  fractional inhibitory concentration index (FICI): 0.75
  MIC99: 0.33 µM
[13]
  fractional inhibitory concentration index (FICI): 0.75
  MIC99: 0.67 µM
[14]
  fractional inhibitory concentration index (FICI): 0.5
  MIC99: 0.67 µM
[10]
  Ratio: 0.25
[12]
  Ratio: 0.248
[15]
  Ratio: 0.252
[16]
  Ratio: 0.252

## NC[C@H]1O[C@H](O[C@H]2[C@H](O)[C@@H](O[C@H]3O[C@H](CO)[C@@H](O)[C@H](N)[C@H]3O)[C@H](N)C[C@@H]2N)[C@H](O)[C@@H](O)[C@@H]1O [KANAMYCIN]
[1]
  MIC99: 7.16 µM
[9]
  fractional inhibitory concentration index (FICI): 1
  MIC99: 3.57 µM
[17]
  fold change (FC): 2
[18]
  fold change (FC): 2
[11]
  fractional inhibitory concentration index (FICI): 0.5
  MIC99: 0.89 µM
[13]
  fractional inhibitory concentration index (FICI): 1
  MIC99: 0.89 µM
[14]
  fractional inhibitory concentration index (FICI): 0.5
  MIC99: 0.89 µM
[19]
  MIC99: 0.89 µM
[20]
  MIC99: 0.89 µM
[10]
  Ratio: 0.5
[12]
  Ratio: 0.249
[15]
  Ratio: 0.497
[16]
  Ratio: 0.249

## CNCCCN1c2ccccc2Sc2ccc(Cl)cc21 [NOR1-CHLORPROMAZINE]
[1]
  MIC99: 137 µM
[3]
  MIC99: 34.2 µM
[4]
  MIC99: 34.2 µM
[5]
  MIC99: 34.2 µM
[2]
  MIC99: 34.2 µM
[6]
  Ratio: 0.25
[7]
  Ratio: 0.25

## CO[C@H]1/C=C/O[C@@]2(C)Oc3c(C)c(O)c4c(O)c(c(/C=N/N5CCN(C)CC5)c(O)c4c3C2=O)NC(=O)/C(C)=C\C=C\[C@H](C)[C@H](O)[C@@H](C)[C@@H](O)[C@@H](C)[C@H](OC(C)=O)[C@@H]1C [RIFAMPIN]
[1]
  MIC99: 2.53 µM
[9]
  fractional inhibitory concentration index (FICI): 0.63
  MIC99: 0.2 µM
[11]
  fractional inhibitory concentration index (FICI): 0.63
  MIC99: 0.32 µM
[13]
  fractional inhibitory concentration index (FICI): 1
  MIC99: 0.63 µM
[14]
  fractional inhibitory concentration index (FICI): 0.5
  MIC99: 0.32 µM
[10]
  Ratio: 0.126
[12]
  Ratio: 0.126
[15]
  Ratio: 0.5
[16]
  Ratio: 0.254

## CN[C@@H]1[C@H](O)[C@H](NC)[C@H]2O[C@@]3(O)C(=O)C[C@@H](C)O[C@H]3O[C@@H]2[C@H]1O [SPECTINOMYCIN]
[1]
  MIC99: 84.1 µM
[9]
  fractional inhibitory concentration index (FICI): 0.31
  MIC99: 5.25 µM
[17]
  fold change (FC): 16
[18]
  fold change (FC): 2
[21]
  fold change (FC): 4
[11]
  fractional inhibitory concentration index (FICI): 0.19
  MIC99: 5.25 µM
[13]
  fractional inhibitory concentration index (FICI): 0.63
  MIC99: 84.1 µM
[14]
  fractional inhibitory concentration index (FICI): 0.31
  MIC99: 5.25 µM
[19]
  MIC99: 42 µM
[20]
  MIC99: 10.5 µM
[22]
  MIC99: 21 µM
[10]
  Ratio: 0.062
[12]
  Ratio: 0.062
[15]
  Ratio: 0.5
[16]
  Ratio: 0.062

Source: ChEMBL document CHEMBL3352027, “Pharmacologically active metabolites, combination screening and target identification-driven drug repositioning in antituberculosis drug discovery” (2014)
